# Experimental data from US20210255184A1, “Biosensor Device and Methods” (The New Zealand Institute for Plant and Food Research …, priority 2018, published 2021).
# Assays:
# [1] = EIS sensor, empty liposomes (specificity control); format: biochemical; conditions: empty liposomes without receptor
# Protocol: (§1) PBS solution was prepared by immersing one tablet of PBS in 200 ml of milli-Q water (according to manufacturers instructions) and filtered using 0.2-μm syringe filter. The pH of the prepared buffer solution was measured with a pH meter. OrX liposomes or OrX/Orco liposomes were diluted 100 fold in PBS buffer solution (pH=7.4) and the COOH-activated electrodes were incubated in that buffer solution at room temperature for one hour. Then, the electrodes were washed extensively with PBS buffer solution to wash out any unbound liposomes.
# (§2) PBS (pH=7.4) was used as an electrolyte to conduct electrochemical measurements. PBS buffer was degassed for about 30 minutes prior to electrochemical measurements. Odorant solutions of concentration ranging from 1 aM to 1 μM were prepared by sequential dilution in PBS solution containing 1% DMSO. OR immobilized electrodes were incubated in relevant odorant solution for ˜30 minutes each and washed gently with PBS before EIS measurements.
# (§3) EIS measurements were done in a 3 electrode cell containing Ag/AgCl (3 M NaCl, 0.209 V vs. SHE) reference electrode, coiled platinum wire as a counter electrode and the gold disk as a working electrode at a fixed voltage of −0.7 using PalmSens potentiostat. Degassed PBS was used as an electrolyte.
# EIS measurements were performed on gold electrodes functionalised with OrX liposomes (either Or10a or Or22a), OrX/Orco liposomes, or empty liposomes prior to and after target ligand or control ligand incubation with increasing concentrations (1 aM to 100 μM). Dose response curves were obtained by defining sensor response as −(ΔRp/R^op) versus log[C(Ligand)]. FIG. 4a presents the EIS response in terms of Nyquist plot for the Or10a liposome functionalized sensors when exposed to a solution containing one of the known target ligands of Or10a, methyl salicylate, at various concentrations. […] The dose response curve (FIG. 4b) was obtained by plotting the change in polarization resistance −(ΔRp/R^op) versus log[conc(Ligand)], as the sensor response. […]
# Or22a = molecular target: T1, Or22a (Drosophila melanogaster, UniProt P81909); experiment: EIS sensor, Or22a liposomes on gold electrode; format: biochemical
# T1 construct: his-tag; made in house; host or cells: baculovirus-infected Sf9 cells
# T1 sequence (P81909 1-397): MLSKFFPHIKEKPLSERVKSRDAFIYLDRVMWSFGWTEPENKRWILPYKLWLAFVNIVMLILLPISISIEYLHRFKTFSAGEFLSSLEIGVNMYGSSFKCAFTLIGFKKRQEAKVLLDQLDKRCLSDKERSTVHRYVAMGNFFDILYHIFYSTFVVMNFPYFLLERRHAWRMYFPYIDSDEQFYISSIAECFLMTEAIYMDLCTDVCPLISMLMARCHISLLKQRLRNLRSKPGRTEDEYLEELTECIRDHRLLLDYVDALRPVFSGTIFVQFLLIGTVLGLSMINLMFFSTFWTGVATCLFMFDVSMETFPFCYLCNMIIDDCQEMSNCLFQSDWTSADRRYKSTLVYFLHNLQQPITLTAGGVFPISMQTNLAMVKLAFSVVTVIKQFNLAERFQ
# Protocol: Prior to their use, liposomes were defrosted on ice and then destabilized by incubating with 0.2% CHAPS for 15 min at room temperature. Then 200 μg of purified odorant receptor^28 was added to 1 mg of liposomes and rotated at 10 rpm for 1 h at room temperature. Excess detergent was removed by four additions of 25 mg of Bio-Beads SM-2 (Bio-Rad, USA) and incubation at 4° C. for 30 min, 2 h, overnight and a further 2 h respectively. The Bio-Beads were removed after each incubation period. The OrX or OrX/Orco integrated liposomes were pelleted by centrifugation at 100,000 g for 1 h, and were resuspended in 500 μL of rehydration buffer. Integration of OrXs and Orco into liposomes was assessed by density gradient ultracentrifugation (DGU) using Accudenz (Accurate Chemical & Scientific Corporation, USA). The integrated liposomes were brought to 40% Accudenz by the addition of an equal volume of 80% Accudenz solution, placed at the bottom of an ultra-centrifugation tube, and overlaid with 30% Accudenz solution, and DGU buffer (25 mM HEPES pH 7.5, 100 mM NaCl, 10% glycerol). The sample was then centrifuged at 100,000 g for 4 h at 4° C. Liposomes will float to the top of the gradient after Accudenz DGU due to their low density.
# 2 mM MHA was prepared by dissolving 1.36 μl of MHA in 5 ml ethanol (AR grade). The cleaned electrodes were immersed into MHA solution and incubated overnight. The next day, all the electrodes were washed with ethanol and deionised water thoroughly in order to remove the unreacted acid. A 2:1 mol:mol ratio of EDC:NHS (100 mM EDC, 50 mM NHS) was prepared in 2 ml PBS (pH=6.5) solution. Then, the electrodes were covered in 100 μl of this solution at 28° C. for an hour to activate the carboxylic (COOH) groups of the MHA.
# as §1, §2, §3
# EIS measurements were performed on gold electrodes functionalised with OrX liposomes (either Or10a or Or22a), OrX/Orco liposomes, or empty liposomes prior to and after target ligand or control ligand incubation with increasing concentrations (1 aM to 100 μM). Dose response curves were obtained by defining sensor response as −(ΔRp/R^op) versus log[C(Ligand)]. FIG. 4a presents the EIS response in terms of Nyquist plot for the Or10a liposome functionalized sensors when exposed to a solution containing one of the known target ligands of Or10a, methyl salicylate, at various concentrations. […] The dose response curve (FIG. 4b) was obtained by plotting the change in polarization resistance −(ΔRp/R^op) versus log[conc(Ligand)], as the sensor response. Here, Rp is the polarization resistance after Or10a liposome-target interaction and R^op is the polarization resistance before Or10a liposome-target interaction.
SMILES,sensor response to ligand [1],"limit of detection (LOD) (Or22a; EIS dose response, ligand 1 aM to 100 μM) [fM]","EC50 (Or22a; Table 1, approximate) [pM]","Sensitivity limit (Or22a; Table 1, * estimated visually from dose response graph)",Detection Range (Or22a; Table 3),"EC50 (Or22a; Table 3, fitted dose response) [pM]",sensor response to control ligand (Or22a; EIS dose response)
CCCCCC(=O)OC [methyl hexanoate],negligible response,1,~1,~10^−15 M*,10^−15 to 10^−5 M,1.1,
COC(=O)c1ccccc1O [methyl salicylate],negligible response,,,,,,negligible response
